Assay results published in patent publication US20250320213A1, “Nitrogen-Containing Heterocyclic Compounds” (Pfizer Inc., priority 2024, published 2025).

Legend:
[1] = system: CCL17 secretion in peripheral human whole blood; experiment: Human Whole Blood (HWB) CCL17 TR-FRET Assay (IL-13 stimulated CCL17 secretion); type: cell-based; conditions: Homo sapiens, 48 h, human whole blood
Summary of the method: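 Compounds are titrated (11 points, 3-fold, duplicate) into fresh heparinized human whole blood and held 2 h at 37 °C before IL-13 challenge (10 ng/mL final). After 48 h at 37 °C, serum CCL17 is measured by TR-FRET sandwich assay and IC50 values are calculated.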

STAT6 = biological target: T1, STAT6 (Homo sapiens, UniProt P42226); experiment: STAT6 Reporter Luciferase Assay (IL-13 stimulated HaCaT keratinocyte NanoLuc reporter cells); type: cell-based; conditions: IL-13 stimulated HaCaT STAT6 NanoLuc reporter cells; read-out: Reporter EC50
T1 construct: stably transfected HaCaT keratinocyte cell line, which expresses NanoLuc luciferase reporter gene under the transcriptional control of the STAT6 responsive promoter; endogenous in cells; host or cells: HaCaT keratinocyte reporter cell line (stably transfected with a NanoLuc reporter)
T1 sequence (P42226 1-847): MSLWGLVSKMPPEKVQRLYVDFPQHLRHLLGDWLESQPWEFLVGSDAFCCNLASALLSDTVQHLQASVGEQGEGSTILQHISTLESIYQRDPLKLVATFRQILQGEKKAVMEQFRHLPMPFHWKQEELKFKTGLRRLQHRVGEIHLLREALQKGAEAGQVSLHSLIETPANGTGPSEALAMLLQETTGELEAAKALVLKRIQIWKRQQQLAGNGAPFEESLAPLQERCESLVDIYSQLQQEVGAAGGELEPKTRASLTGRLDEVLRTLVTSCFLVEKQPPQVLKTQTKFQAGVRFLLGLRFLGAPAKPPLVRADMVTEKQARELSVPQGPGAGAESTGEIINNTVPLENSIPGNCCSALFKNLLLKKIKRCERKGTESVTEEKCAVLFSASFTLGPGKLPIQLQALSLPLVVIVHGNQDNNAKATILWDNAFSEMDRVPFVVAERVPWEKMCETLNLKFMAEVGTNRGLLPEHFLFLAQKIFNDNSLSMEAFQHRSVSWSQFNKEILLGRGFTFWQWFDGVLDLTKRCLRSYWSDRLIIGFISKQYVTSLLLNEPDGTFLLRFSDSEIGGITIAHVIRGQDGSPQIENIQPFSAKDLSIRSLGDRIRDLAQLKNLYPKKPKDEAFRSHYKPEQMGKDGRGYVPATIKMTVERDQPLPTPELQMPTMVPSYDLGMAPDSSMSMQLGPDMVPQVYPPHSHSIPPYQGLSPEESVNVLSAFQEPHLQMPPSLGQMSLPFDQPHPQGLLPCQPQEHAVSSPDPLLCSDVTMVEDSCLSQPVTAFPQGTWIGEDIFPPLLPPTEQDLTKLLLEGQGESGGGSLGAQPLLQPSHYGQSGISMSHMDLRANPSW
Summary of the method: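 Cells were plated overnight, washed, exposed to compound for two hours, stimulated with IL-13 (0.12 nM final) for four hours at 37 °C, and then lysed with Nano-Glo substrate for 15 min before luminescence reading.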

SMILES | IC50 ([1]; 10 ng/mL IL13, 48 hours) [nM] | EC50 (STAT6) [nM] | IC50 ([1]; IL-13 10 ng/mL) [nM]
COCC1(N)CCN(C(=O)Nc2ccc(CNC(=O)c3nn(C(C)C)c4c3CN(c3ccc(C(=O)N(C)C)cc3)C[C@@H]4C)cc2)CC1 [Example 638, (S)-N-(4-(4-amino-4-(methoxymethyl)piperidine-1-carboxamido)benzyl)-5-(4-(dimethylcarbamoyl)phenyl)-1-isopropyl-7-methyl-4,5,6,7-tetrahydro-1H-pyrazolo[4,3-c]pyridine-3-carboxamide] | 4 | 1 | –
COCC1(N)CCN(C(=O)Nc2ccc(CNC(=O)c3nn(C(C)C)c4c3CN(c3ccc(C(=O)N(C)C)cc3)C[C@@H]4C)cc2F)CC1 [Example 639, (S)-N-(4-(4-amino-4-(methoxymethyl)piperidine-1-carboxamido)-3-fluorobenzyl)-5-(4-(dimethylcarbamoyl)phenyl)-1-isopropyl-7-methyl-4,5,6,7-tetrahydro-1H-pyrazolo[4,3-c]pyridine-3-carboxamide] | 8 | 1 | –
CC(C)n1nc(C(=O)NCc2ccc(NC(=O)N(C)C)cc2)c2c1[C@@H](C)CN(c1ccc(C(=O)N3CCN(C)CC3)cc1)C2 [Example 706, (S)-N-(4-(3,3-dimethylureido)benzyl)-1-isopropyl-7-methyl-5-(4-(4-methylpiperazine-1-carbonyl)phenyl)-4,5,6,7-tetrahydro-1H-pyrazolo[4,3-c]pyridine-3-carboxamide] | – | 27 | 191
COCCC1(N)CCN(C(=O)Nc2ccc(CNC(=O)c3nn(C(C)C)c4c3CN(c3ccc(C(=O)N(C)C)cc3)C[C@@H]4C)cc2)CC1 [Example 708, (S)-N-(4-(4-amino-4-(2-methoxyethyl)piperidine-1-carboxamido)benzyl)-5-(4-(dimethylcarbamoyl)phenyl)-1-isopropyl-7-methyl-4,5,6,7-tetrahydro-1H-pyrazolo[4,3-c]pyridine-3-carboxamide] | – | 1 | 8
CC(C)n1nc(C(=O)NCc2ccc(NC(=O)N3CCN(C)CC3)c(F)c2)c2c1[C@@H](C)CN(c1ccc(C(=O)N3Cc4cccnc4C3)cc1)C2 [Example 711, (S)-5-(4-(6,7-dihydro-5H-pyrrolo[3,4-b]pyridine-6-carbonyl)phenyl)-N-(3-fluoro-4-(4-methylpiperazine-1-carboxamido)benzyl)-1-isopropyl-7-methyl-4,5,6,7-tetrahydro-1H-pyrazolo[4,3-c]pyridine-3-carboxamide] | – | 0.5 | 18
CC(C)n1nc(C(=O)NCc2ccc(NC(=O)N3CCN(C)CC3)cc2Cl)c2c1[C@@H](C)CN(c1ccc(C(=O)N(C)C)cc1)C2 [Example 712, (S)-N-(2-chloro-4-(4-methylpiperazine-1-carboxamido)benzyl)-5-(4-(dimethylcarbamoyl)phenyl)-1-isopropyl-7-methyl-4,5,6,7-tetrahydro-1H-pyrazolo[4,3-c]pyridine-3-carboxamide] | – | 3 | 64
CCn1nc(C(=O)NCc2ccc(NC(=O)N3CC(NC)C3)c(F)c2)c2c1[C@@H](C)CN(c1ccc(C(=O)N(C)C)cc1)C2 [Example 716, (S)-5-(4-(dimethylcarbamoyl)phenyl)-1-ethyl-N-(3-fluoro-4-(3-(methylamino)azetidine-1-carboxamido)benzyl)-7-methyl-4,5,6,7-tetrahydro-1H-pyrazolo[4,3-c]pyridine-3-carboxamide] | – | 3 | 25
CC(C)n1nc(C(=O)NCc2ccc(NC(=O)N3CCN(C)CC3)c(Cl)c2)c2c1[C@@H](C)CN(c1ccc(C(=O)N(C)C)cc1)C2 [Example 717, (S)-N-(3-chloro-4-(4-methylpiperazine-1-carboxamido)benzyl)-5-(4-(dimethylcarbamoyl)phenyl)-1-isopropyl-7-methyl-4,5,6,7-tetrahydro-1H-pyrazolo[4,3-c]pyridine-3-carboxamide] | – | 3 | 29
CC(C)n1nc(C(=O)NCc2ccc(NC(=O)N3CCN(C)CC3)cc2F)c2c1[C@@H](C)CN(c1ccc(C(=O)N(C)C)cc1)C2 [Example 718, (S)-5-(4-(dimethylcarbamoyl)phenyl)-N-(2-fluoro-4-(4-methylpiperazine-1-carboxamido)benzyl)-1-isopropyl-7-methyl-4,5,6,7-tetrahydro-1H-pyrazolo[4,3-c]pyridine-3-carboxamide] | – | 1 | 18

The remaining compounds from weak to strong by EC50 (STAT6), led by results:

IC50 ([1]; 10 ng/mL IL13, 48 hours) [nM] | EC50 (STAT6) [nM] | IC50 ([1]; IL-13 10 ng/mL) [nM] | SMILES
– | 1000 | 3690 | CC(C)n1nc(C(=O)NCc2ccc(C(N)=O)cc2)c2c1[C@@H](C)CN(c1ncc(-c3nccn3C)cn1)C2 [Example 719, (S)-N-(4-carbamoylbenzyl)-1-isopropyl-7-methyl-5-(5-(1-methyl-1H-imidazol-2-yl)pyrimidin-2-yl)-4,5,6,7-tetrahydro-1H-pyrazolo[4,3-c]pyridine-3-carboxamide]
71 | 14 | – | CC(C)n1nc(C(=O)NCc2ccc(NC(=O)N(C)C)cc2)c2c1[C@@H](C)CN(c1ccc(C(=O)N(C)CC3CCN(C)CC3)cc1)C2 [Example 635, (S)-N-(4-(3,3-dimethylureido)benzyl)-1-isopropyl-7-methyl-5-(4-(methyl((1-methylpiperidin-4-yl)methyl)carbamoyl)phenyl)-4,5,6,7-tetrahydro-1H-pyrazolo[4,3-c]pyridine-3-carboxamide]
48 | 13 | – | CC(C)n1nc(C(=O)NCc2ccc(NC(=O)N(C)C)cc2)c2c1[C@@H](C)CN(c1ccc(C(=O)N(C)CC3CCNCC3)cc1)C2 [Example 637, (S)-N-(4-(3,3-dimethylureido)benzyl)-1-isopropyl-7-methyl-5-(4-(methyl(piperidin-4-ylmethyl)carbamoyl)phenyl)-4,5,6,7-tetrahydro-1H-pyrazolo[4,3-c]pyridine-3-carboxamide]
22 | 5 | – | CC(C)n1nc(C(=O)NCc2ccc(NC(=O)N3CCNCC3)cn2)c2c1[C@@H](C)CN(c1ccc(C(=O)N(C)C)cc1)C2 [Example 700, (S)-5-(4-(dimethylcarbamoyl)phenyl)-1-isopropyl-7-methyl-N-((5-(piperazine-1-carboxamido)pyridin-2-yl)methyl)-4,5,6,7-tetrahydro-1H-pyrazolo[4,3-c]pyridine-3-carboxamide]
– | 5 | 68 | CC(C)n1nc(C(=O)NCc2ccc(NC(=O)N3CCN(C)CC3)c(F)c2)c2c1[C@@H](C)CN(c1ccc(-n3ccccc3=O)cc1)C2 [Example 715, (S)-N-(3-fluoro-4-(4-methylpiperazine-1-carboxamido)benzyl)-1-isopropyl-7-methyl-5-(4-(2-oxopyridin-1(2H)-yl)phenyl)-4,5,6,7-tetrahydro-1H-pyrazolo[4,3-c]pyridine-3-carboxamide]
27 | 4 | – | CC(C)n1nc(C(=O)NCc2ccc(NC(=O)N3CCNCC3)nc2)c2c1[C@@H](C)CN(c1ccc(C(=O)N(C)C)cc1)C2 [Example 699, (S)-5-(4-(dimethylcarbamoyl)phenyl)-1-isopropyl-7-methyl-N-((6-(piperazine-1-carboxamido)pyridin-3-yl)methyl)-4,5,6,7-tetrahydro-1H-pyrazolo[4,3-c]pyridine-3-carboxamide]
33 | 3 | – | CC(C)n1nc(C(=O)NCc2ccc(NC(=O)N(C)C)cc2)c2c1[C@@H](C)CN(c1ccc(C(=O)N(C)CCN3CCOCC3)cc1)C2 [Example 636, (S)-N-(4-(3,3-dimethylureido)benzyl)-1-isopropyl-7-methyl-5-(4-(methyl(2-morpholinoethyl)carbamoyl)phenyl)-4,5,6,7-tetrahydro-1H-pyrazolo[4,3-c]pyridine-3-carboxamide]
24 | 1 | – | CC(C)n1nc(C(=O)NCc2ccc(NC(=O)N3CCN(C)CC3)cc2)c2c1[C@@H](C)CN(c1ccc(-c3ncnn3C3CC3)cn1)C2 [Example 649, (S)-5-(5-(1-cyclopropyl-1H-1,2,4-triazol-5-yl)pyridin-2-yl)-1-isopropyl-7-methyl-N-(4-(4-methylpiperazine-1-carboxamido)benzyl)-4,5,6,7-tetrahydro-1H-pyrazolo[4,3-c]pyridine-3-carboxamide]
